Measured values: the supplement of paper PMC4862054

Assays:
Conditions in all cases: incubation time: 72 h
[1] = system: MFM-223; assay: normalised response (% of control), CellTox Green; higher = less cell death (100 = DMSO, 0 = benzethonium chloride kill control)
How it was run: (§1)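 Every value is a normalised signal taken at one concentration of a dilution series. Compound was placed in 384-well plates at 5 concentrations in 10-fold steps over a compound-specific 10,000-fold range, and 20 µl of breast cancer cell suspension was seeded onto it. After 72 h, CellTox Green fluorescence (485/520 nm) was measured first and CellTiter-Glo luminescence second, following 10 min at room temperature. Each plate was scaled to 0.1 % DMSO (100) and a positive kill control (0).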

[2] = system: CAL-85-1; assay: as above
How it was run: as §1

[3] = system: HCC1143; assay: as above
How it was run: as §1

[4] = system: BT-549; assay: as above
How it was run: as §1

[5] = system: MDA-MB-231; assay: as above
How it was run: as §1

[6] = system: HCC1937; assay: as above
How it was run: as §1

[7] = system: MDA-MB-453; assay: as above
How it was run: as §1

[8] = system: BT-474; assay: as above
How it was run: as §1

[9] = system: Hs578T; assay: as above
How it was run: as §1

[10] = system: DU-4475; assay: as above
How it was run: as §1

[11] = system: CAL-120; assay: as above
How it was run: as §1

[12] = system: CAL-148; assay: as above
How it was run: as §1

[13] = system: MCF-10A; assay: as above
How it was run: as §1

[14] = system: CAL-51; assay: as above
How it was run: as §1

[15] = system: MDA-MB-436; assay: as above
How it was run: as §1

[16] = system: HCC1599; assay: as above
How it was run: as §1

[17] = system: MDA-MB-468; assay: as above
How it was run: as §1

[18] = system: HDQ-P1; assay: as above
How it was run: as §1

[19] = system: MFM-223; assay: normalised response (% of control), CellTiter-Glo; higher = more viable cells (100 = DMSO, 0 = benzethonium chloride kill control)
How it was run: as §1

[20] = system: CAL-85-1; assay: as above
How it was run: as §1

[21] = system: HCC1143; assay: as above
How it was run: as §1

[22] = system: BT-549; assay: as above
How it was run: as §1

[23] = system: MDA-MB-231; assay: as above
How it was run: as §1

[24] = system: HCC1937; assay: as above
How it was run: as §1

[25] = system: MDA-MB-453; assay: as above
How it was run: as §1

[26] = system: BT-474; assay: as above
How it was run: as §1

[27] = system: Hs578T; assay: as above
How it was run: as §1

[28] = system: SK-BR-3; assay: as above
How it was run: as §1

[29] = system: DU-4475; assay: as above
How it was run: as §1

[30] = system: CAL-120; assay: as above
How it was run: as §1

[31] = system: CAL-148; assay: as above
How it was run: as §1

[32] = system: MCF-10A; assay: as above
How it was run: as §1

[33] = system: CAL-51; assay: as above
How it was run: as §1

[34] = system: MDA-MB-436; assay: as above
How it was run: as §1

[35] = system: HCC1599; assay: as above
How it was run: as §1

[36] = system: MDA-MB-468; assay: as above
How it was run: as §1

[37] = system: HDQ-P1; assay: as above
How it was run: as §1

Row | SMILES | normalised response [1] [%] | normalised response [2] [%] | normalised response [3] [%] | normalised response [4] [%] | normalised response [5] [%] | normalised response [6] [%] | normalised response [7] [%] | normalised response [8] [%] | normalised response [9] [%] | normalised response [10] [%] | normalised response [11] [%] | normalised response [12] [%] | normalised response [13] [%] | normalised response [14] [%] | normalised response [15] [%] | normalised response [16] [%] | normalised response [17] [%] | normalised response [18] [%] | normalised response [19] [%] | normalised response [20] [%] | normalised response [21] [%] | normalised response [22] [%] | normalised response [23] [%] | normalised response [24] [%] | normalised response [25] [%] | normalised response [26] [%] | normalised response [27] [%] | normalised response [28] [%] | normalised response [29] [%] | normalised response [30] [%] | normalised response [31] [%] | normalised response [32] [%] | normalised response [33] [%] | normalised response [34] [%] | normalised response [35] [%] | normalised response [36] [%] | normalised response [37] [%]
1 | Cn1cncc1[C@@](N)(c1ccc(Cl)cc1)c1ccc2c(c1)c(-c1cccc(Cl)c1)cc(=O)n2C [Tipifarnib] (10000 nM) | 75.5 | 75.2 | 98.7 | 90.4 | 57.5 | 72.2 | 92.4 | 75.5 | 101 | 85.6 | 81 | 89.5 | 92.6 | 84 | 81.1 | 98 | 88.8 | 69.9 | 39.6 | 61.5 | 49.6 | 40.3 | 73.8 | 53.1 | 63.7 | 53.9 | 49.6 | 33.5 | 46.9 | 63.4 | 54.7 | 74.3 | 59.1 | 34.7 | 40.6 | 31.8 | 60.2
2 | Nc1ncnc2c1c(COc1cccc(Cl)c1)nn2C1CCOCC1 (10000 nM) | 98.8 | 91.3 | 104 | 110 | 106 | 103 | 104 | 106 | 110 | 103 | 109 | 96 | 86.3 | 109 | 79.2 | 106 | 112 | 109 | 96.8 | 90.2 | 98.2 | 88.1 | 89.6 | 95.3 | 88.3 | 86.8 | 100 | 102 | 101 | 107 | 113 | 89.3 | 101 | 89.3 | 98.6 | 92.3 | 92.2
3 | CC[C@]1(O)C[C@H]2CN(CCc3c([nH]c4ccccc34)[C@@](C(=O)OC)(c3cc4c(cc3OC)N(C=O)[C@H]3[C@@](O)(C(=O)OC)[C@H](OC(C)=O)[C@]5(CC)C=CCN6CC[C@]43[C@@H]65)C2)C1 [Vincristine] (1000 nM) | 65.1 | 54.1 | 75.8 | 73.4 | 45.3 | 102 | 82.2 | 78.7 | 33.5 | 95.8 | 85 | 86.8 | 56.6 | 29.8 | 72.1 | 69.7 | -25.1 | 99.3 | 44.2 | 50.1 | 55.3 | 38 | 48.4 | 73.2 | 63.8 | 53.5 | 25 | 18.5 | 42.5 | 62.2 | 59.3 | 68.1 | 23.8 | 28.8 | 12.2 | 38.2 | 71.5
4 | CN(C)CCN1C(=O)c2cccc3cc(N)cc(c23)C1=O [Amonafide] (10000 nM) | 100 | 63.4 | 93.5 | 122 | 111 | 120 | 112 | 97.8 | 114 | 83.8 | 101 | 32.8 | 77 | 23.1 | 63.8 | 98 | 125 | 87 | 69.7 | 47.6 | 52.3 | 47 | 39.2 | 55.7 | 77.8 | 43.9 | 61.7 | 31.9 | 14.6 | 52.3 | 25.4 | 45 | 17.7 | 38.8 | 57.2 | 43.5 | 53.1
